Measured values as given in the supplement of paper PMC7600603.

How the values were obtained:
DLD1 NRF2-WT [1] = conditions: 72 h; CellTiter-Glo viability
In short: (§1)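 Library compounds were tested in 384-well plates at 5 concentrations covering a 10,000-fold span against isogenic DLD1 colorectal cancer cells, NRF2 wild-type or CRISPR gain-of-function, grown in DMEM with 10% FBS. Viability was measured at 72 h with CellTiter-Glo on a Pherastar FS reader, relative to vehicle wells and 100-μM positive-control wells. EC50 and drug sensitivity score (normalised area under the curve) were derived from logistic dose-response curves fitted with four parameters.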

DLD1 NRF2-GOF [2] = experiment: TC50 cytotoxicity; higher = less toxic; conditions: 72 h; CellTox Green cytotoxicity
In short: (§2)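 TC50 and drug sensitivity score, a normalised area under the curve, were derived by logistic dose-response fits of cytotoxicity. The cells were an isogenic DLD1 colorectal cancer pair, NRF2 wild-type or CRISPR-edited, kept in DMEM with 10% FBS. Compounds were tested in 384-well plates at 5 concentrations across a 10,000-fold range for 72 h. Readings with CellTox Green on a Pherastar FS reader were normalised to vehicle wells and 100-μM positive-control wells.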

DLD1 NRF2-WT [3] = experiment: TC50 cytotoxicity; higher = less toxic; conditions: 72 h; CellTox Green cytotoxicity
In short: as §2

DLD1 NRF2-GOF [4] = experiment: drug sensitivity score (DSS) cytotoxicity (DSS score); higher = more toxic; extreme values may be limits of the assay; conditions: 72 h; CellTox Green cytotoxicity
In short: as §2

DLD1 NRF2-WT [5] = experiment: as above; conditions: 72 h; CellTox Green cytotoxicity
In short: as §2

DLD1 NRF2-GOF [6] = experiment: drug sensitivity score (DSS) viability (DSS score); higher = more sensitive; extreme values may be limits of the assay; conditions: 72 h; CellTiter-Glo viability
In short: as §1

DLD1 NRF2-WT [7] = experiment: as above; conditions: 72 h; CellTiter-Glo viability
In short: as §1

EC50 viability (DLD1 NRF2-WT [1]) [µM] | SMILES | TC50 cytotoxicity (DLD1 NRF2-GOF [2]) [µM] | TC50 cytotoxicity (DLD1 NRF2-WT [3]) [µM] | drug sensitivity score (DLD1 NRF2-GOF [4]) | drug sensitivity score (DLD1 NRF2-WT [5]) | drug sensitivity score (DLD1 NRF2-GOF [6]) | drug sensitivity score (DLD1 NRF2-WT [7])
0.0595 | CC(C)(O)CC(=O)NCCn1ccc2ncnc(Nc3ccc(Oc4cccc(C(F)(F)F)c4)c(Cl)c3)c21 [TAK-285] | > 2.5 | > 2.5 | 0 | 0 | 3.7 | 5.4
 | CONC(=O)c1ccccc1Nc1cc(Nc2cc(C)nn2C(C)C)ncc1Cl | > 1 | > 1 | 0 | 0 | 1.6 | 
0.0598 | C[C@@H](Nc1cc(F)cc(F)c1)c1cc(C(=O)N(C)C)cc2c(=O)cc(N3CCOCC3)oc12 [AZD-8186] | > 1 | > 1 | 0 | 0 | 5.2 | 3.6
0.251 | CCc1nc(C(N)=O)c(Nc2ccc(N3CCC(N4CCN(C)CC4)CC3)c(OC)c2)nc1NC1CCOCC1 [Gilteritinib] | > 1 | > 1 | 0 | 0 | 1.4 | 2.9
> 5 | Nc1cc(COc2c(Cl)cc(C[C@H](N)C(=O)O)cc2Cl)c2oc(-c3ccccc3)nc2c1 [JPH203] | > 5 | > 5 | 0 | 0 | 5.3 | 4.2
0.565 | CC1(C)CNc2cc(NC(=O)c3cccnc3NCc3ccncc3)ccc21 [Motesanib] | > 10 | > 10 | 0 | 0 | 3.1 | 4.5
1.86 | OC[C@H]1O[C@@H](n2cnc3c2N=CNC[C@H]3O)C[C@@H]1O [Pentostatin] |  |  |  |  | 1.6 | 2.5
 | COc1cc2/c(=N/c3ccc(Br)cc3F)nc[nH]c2cc1OCC1CCN(C)CC1 [Vandetanib] | > 1 | > 1 | 0 | 0 | 2.3 | 6.9
> 10 | CC1(C)NC(=O)N(c2ccc([N+](=O)[O-])c(C(F)(F)F)c2)C1=O [Nilutamide] | > 10 | > 10 | 0 | 0 | 3.6 | 0
1.54 | C#Cc1cccc(Nc2ncnc3cc4c(cc23)OCCOCCOCCO4)c1 [Icotinib] | > 10 | > 10 | 0 | 0 | 0.7 | 2.5
 | C[C@]12C=CC(=O)C=C1CC[C@@H]1[C@@H]2[C@@H](O)C[C@@]2(C)[C@H]1CC[C@]2(O)C(=O)CO [Prednisolone] | > 10 | > 10 | 0 | 0 | 1 | 
3.95 | CC1(C)CCC(c2ccc(Cl)cc2)=C(CN2CCN(c3ccc(C(=O)NS(=O)(=O)c4ccc(N[C@H](CCN5CCOCC5)CSc5ccccc5)c(S(=O)(=O)C(F)(F)F)c4)cc3)CC2)C1 [Navitoclax] | 1.89 | 1.55 | 2.1 | 4 |  | 2.1
3.47 | CN1CCC(CNc2ccc3ncc(-c4cccc(OC(F)(F)F)c4)n3n2)CC1 [SGI-1776] | 3.14 | 2.68 | 3.1 | 4.5 |  | 5
1.69 | Cc1nc(C(=O)NCC(=O)O)c(O)c2ccc(Oc3ccccc3)cc12 [Roxadustat] | > 10 | > 10 | 0 | 0 |  | 2.5
> 10 | CC[C@H](C)C(=O)O[C@H]1C[C@H](O)C=C2C=C[C@H](C)[C@H](CC[C@@H](O)C[C@@H](O)CC(=O)O)[C@H]21 [Pravastatin] | > 10 | > 10 | 0 | 0 |  | 0
> 10 | CC(C)NC[C@@H](C(=O)N1CCN(c2ncnc3c2[C@H](C)C[C@H]3O)CC1)c1ccc(Cl)cc1 [Ipatasertib] | > 10 | > 10 | 0 | 0 |  | 1.3
3.11 | CC(C)(C)c1cc(NC(=O)Nc2ccc(Oc3ccnc4[nH]c(=O)cnc34)cc2F)n(-c2ccccc2)n1 | > 25 | > 25 | 0 | 1.1 |  | 9.8
> 10 | COc1cc2ncnc(Oc3cccc(NC(=O)Nc4cc(C(C)(C)C(F)(F)F)on4)c3)c2cc1OC | > 10 | > 10 | 0 | 0 | 0.6 | 1.4
0.688 | O=C(Nc1ccc2[nH]nc(-c3ccncc3)c2c1)[C@@H]1CCN(CC(=O)N2CCN(c3ccc(-c4ncccn4)cc3)CC2)C1 | > 10 | > 10 | 0 | 0 |  | 6.6
> 10 | O=c1[nH]c(C2CCCN2)nc2c1oc1ccc(Cl)cc12 (stereo unspecified) | > 10 | > 10 | 0 | 0 | 0.7 | 0.9
 | CNC(=O)c1cc(COc2nnc(Nc3ccc(Cl)cc3)c3ccoc23)ccn1 [Telatinib] | > 10 | > 10 | 0 | 0 | 2.6 | 6.9
> 10 | Nc1cc(F)ccc1NC(=O)c1ccc(CNC(=O)/C=C/c2cccnc2)cc1 [Chidamide] | > 10 | > 10 | 0 | 0 |  | 0.6
